# Measured values as given in the supplement of paper PMC11061612.
# Experiments:
# Carboplatin = compound: C1CC(C1)(C(=O)[O-])C(=O)[O-].N.N.[Pt+2] [Carboplatin]; conditions: max 10 µM
# Method in brief: (§1)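 In 1536-well plates, cancer cell lines in 7.5 μl DMEM/F12 or RPMI with 10% FBS spent 24 hours at 37°C and 5% CO2 and were then dosed for 72 hours with final DMSO typically 0.2%. Viability was read by CellTiter-Glo 2.0 luminescence and scaled between blank-well and DMSO-well means. The single-agent IC50 was fitted from dose responses using a logistic curve in a non-linear mixed effects model, and that logistic curve had two parameters.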
# AZD5363 = compound: C1CN(CCC1(C(=O)N[C@@H](CCO)C2=CC=C(C=C2)Cl)N)C3=NC=NC4=C3C=CN4 [AZD5363]; conditions: max 10 µM
# Method in brief: as §1
# AZD1775 = compound: C=CCn1c(=O)c2cnc(Nc3ccc(N4CCN(C)CC4)cc3)nc2n1-c1cccc(C(C)(C)O)n1 [AZD1775]; conditions: max 3 µM
# Method in brief: as §1
# Trametinib = compound: CC(=O)Nc1cccc(-n2c(=O)n(C3CC3)c(=O)c3c(Nc4ccc(I)cc4F)n(C)c(=O)c(C)c32)c1 [Trametinib]; conditions: max 1 µM
# Method in brief: as §1
# Paclitaxel = compound: CC(=O)O[C@H]1C(=O)[C@@]2(C)[C@H]([C@H](OC(=O)c3ccccc3)[C@]3(O)C[C@H](OC(=O)[C@H](O)[C@@H](NC(=O)c4ccccc4)c4ccccc4)C(C)=C1C3(C)C)[C@]1(OC(C)=O)CO[C@@H]1C[C@@H]2O [Paclitaxel]; conditions: max 3 µM
# Method in brief: as §1
# Palbociclib = compound: CC(=O)c1c(C)c2cnc(Nc3ccc(N4CCNCC4)cn3)nc2n(C2CCCC2)c1=O [Palbociclib]; conditions: max 10 µM
# Method in brief: as §1
# AZD1390 = compound: CC(C)n1c(=O)n(C)c2cnc3cc(F)c(-c4ccc(OCCCN5CCCCC5)nc4)cc3c21 [AZD1390]; conditions: max 0.3 µM
# Method in brief: as §1
# Venetoclax = compound: CC1(C)CCC(CN2CCN(c3ccc(C(=O)NS(=O)(=O)c4ccc(NCC5CCOCC5)c([N+](=O)[O-])c4)c(Oc4cnc5[nH]ccc5c4)c3)CC2)=C(c2ccc(Cl)cc2)C1 [Venetoclax]; conditions: max 1 µM
# Method in brief: as §1
# Dasatinib = compound: CC1=C(C(=CC=C1)Cl)NC(=O)C2=CN=C(S2)NC3=CC(=NC(=N3)C)N4CCN(CC4)CCO [Dasatinib]; conditions: max 2 µM
# Method in brief: as §1
# SG3199 = compound: CC1=CN2[C@@H](C1)C=NC3=CC(=C(C=C3C2=O)OC)OCCCCCOC4=C(C=C5C(=C4)N=C[C@@H]6CC(=CN6C5=O)C)OC [SG3199]; conditions: max 0.001 µM
# Method in brief: as §1
# AZD2811 = compound: CCN(CCO)CCCOc1ccc2c(Nc3cc(CC(=O)Nc4cccc(F)c4)[nH]n3)ncnc2c1 [AZD2811]; conditions: max 1 µM
# Method in brief: as §1
# SN-38 = compound: CCc1c2c(nc3ccc(O)cc13)-c1cc3c(c(=O)n1C2)COC(=O)[C@]3(O)CC [SN-38]; conditions: max 0.3 µM
# Method in brief: as §1
# AZD0156 = compound: CN(C)CCCOc1ccc(-c2ccc3ncc4c(c3c2)n(C2CCOCC2)c(=O)n4C)cn1 [AZD0156]; conditions: max 3 µM
# Method in brief: as §1
# AZD4320 = compound: CN(CC[C@H](CSC1=CC=CC=C1)NC2=C(C=C(C=C2)S(=O)(=O)NC(=O)C3=CC=C(C=C3)N4CCC(CC4)[C@H](C5=CC=CC=C5C6=CC=C(C=C6)Cl)O)S(=O)(=O)C(F)(F)F)CCO [AZD4320]; conditions: max 1 µM
# Method in brief: as §1
# Alisertib = compound: COc1cc(Nc2ncc3c(n2)-c2ccc(Cl)cc2C(c2c(F)cccc2OC)=NC3)ccc1C(=O)O [Alisertib]; conditions: max 10 µM
# Method in brief: as §1
# Etoposide = compound: COc1cc([C@@H]2c3cc4c(cc3[C@@H](O[C@@H]3O[C@@H]5CO[C@@H](C)O[C@H]5[C@H](O)[C@H]3O)[C@H]3COC(=O)[C@H]23)OCO4)cc(OC)c1O [Etoposide]; conditions: max 10 µM
# Method in brief: as §1
# Gefitinib = compound: COc1cc2ncnc(Nc3ccc(F)c(Cl)c3)c2cc1OCCCN1CCOCC1 [Gefitinib]; conditions: max 10 µM
# Method in brief: as §1
# Prexasertib = compound: COc1cccc(OCCCN)c1-c1cc(Nc2cnc(C#N)cn2)n[nH]1 [Prexasertib]; conditions: max 1 µM
# Method in brief: as §1
# Doxorubicin = compound: COc1cccc2c1C(=O)c1c(O)c3c(c(O)c1C2=O)C[C@@](O)(C(=O)CO)C[C@@H]3O[C@H]1C[C@H](N)[C@H](O)[C@H](C)O1 [Doxorubicin]; conditions: max 1 µM
# Method in brief: as §1
# AZD5153 = compound: COc1nnc2ccc(N3CCC(c4ccc(OCCN5CCN(C)C(=O)[C@H]5C)cc4)CC3)nn12 [AZD5153]; conditions: max 1 µM
# Method in brief: as §1
# Lapatinib = compound: CS(=O)(=O)CCNCc1ccc(-c2ccc3ncnc(Nc4ccc(OCc5cccc(F)c5)c(Cl)c4)c3c2)o1 [Lapatinib]; conditions: max 10 µM
# Method in brief: as §1
# AZD8186 = compound: C[C@@H](Nc1cc(F)cc(F)c1)c1cc(C(=O)N(C)C)cc2c(=O)cc(N3CCOCC3)oc12 [AZD8186]; conditions: max 10 µM
# Method in brief: as §1
# Crizotinib = compound: C[C@@H](Oc1cc(-c2cnn(C3CCNCC3)c2)cnc1N)c1c(Cl)ccc(F)c1Cl [Crizotinib]; conditions: max 10 µM
# Method in brief: as §1
# Savolitinib = compound: C[C@@H](c1ccc2nccn2c1)n1nnc2ncc(-c3cnn(C)c3)nc21 [Savolitinib]; conditions: max 1 µM
# Method in brief: as §1
# AZD6738 = compound: C[C@@H]1COCCN1C2=NC(=NC(=C2)C3(CC3)[S@](=N)(=O)C)C4=C5C=CNC5=NC=C4 [AZD6738]; conditions: max 10 µM
# Method in brief: as §1
# AZD5991 = compound: Cc1c2c(nn1C)CSCc1cc(n(C)n1)CSc1cc(c3ccccc3c1)OCCCc1c(C(=O)O)n(C)c3c-2c(Cl)ccc13 [AZD5991]; conditions: max 1 µM
# Method in brief: as §1
# AZD7648 = compound: Cc1cc2ncnn2cc1Nc1ncc2c(n1)n(C1CCOCC1)c(=O)n2C [AZD7648]; conditions: max 10 µM
# Method in brief: as §1
# Taselisib = compound: Cc1nc(-c2cn3c(n2)-c2ccc(-c4cnn(C(C)(C)C(N)=O)c4)cc2OCC3)n(C(C)C)n1 [Taselisib]; conditions: max 10 µM
# Method in brief: as §1
# Selumetinib = compound: Cn1cnc2c(F)c(Nc3ccc(Br)cc3Cl)c(C(=O)NOCCO)cc21 [Selumetinib]; conditions: max 10 µM
# Method in brief: as §1
# SRA737 = compound: N#Cc1cnc(Nc2cc(NC[C@H]3CNCCO3)c(C(F)(F)F)cn2)cn1 [SRA737]; conditions: max 10 µM
# Method in brief: as §1
# MK-2206 = compound: NC1(c2ccc(-c3nc4ccn5c(=O)[nH]nc5c4cc3-c3ccccc3)cc2)CCC1 [MK-2206]; conditions: max 10 µM
# Method in brief: as §1
# Gemcitabine = compound: Nc1ccn([C@@H]2O[C@H](CO)[C@@H](O)C2(F)F)c(=O)n1 [Gemcitabine]; conditions: max 0.3 µM
# Method in brief: as §1
# [1] = compound: O=C(Nc1ccc2[nH]nc(-c3ccncc3)c2c1)[C@@H]1CCN(CC(=O)N2CCN(c3ccc(-c4ncccn4)cc3)CC2)C1; conditions: max 5 µM
# Method in brief: as §1
# Olaparib = compound: O=C(c1cc(Cc2n[nH]c(=O)c3ccccc23)ccc1F)N1CCN(C(=O)C2CC2)CC1 [Olaparib]; conditions: max 10 µM
# Method in brief: as §1
# 5-Fluorouracil = compound: O=c1[nH]cc(F)c(=O)[nH]1 [5-Fluorouracil]; conditions: max 20 µM
# Method in brief: as §1
Cell Line,"IC50, cell viability 72 h (Carboplatin) [µM]","IC50, cell viability 72 h (AZD5363) [µM]","IC50, cell viability 72 h (AZD1775) [µM]","IC50, cell viability 72 h (Trametinib) [µM]","IC50, cell viability 72 h (Paclitaxel) [µM]","IC50, cell viability 72 h (Palbociclib) [µM]","IC50, cell viability 72 h (AZD1390) [µM]","IC50, cell viability 72 h (Venetoclax) [µM]","IC50, cell viability 72 h (Dasatinib) [µM]","IC50, cell viability 72 h (SG3199) [µM]","IC50, cell viability 72 h (AZD2811) [µM]","IC50, cell viability 72 h (SN-38) [µM]","IC50, cell viability 72 h (AZD0156) [µM]","IC50, cell viability 72 h (AZD4320) [µM]","IC50, cell viability 72 h (Alisertib) [µM]","IC50, cell viability 72 h (Etoposide) [µM]","IC50, cell viability 72 h (Gefitinib) [µM]","IC50, cell viability 72 h (Prexasertib) [µM]","IC50, cell viability 72 h (Doxorubicin) [µM]","IC50, cell viability 72 h (AZD5153) [µM]","IC50, cell viability 72 h (Lapatinib) [µM]","IC50, cell viability 72 h (AZD8186) [µM]","IC50, cell viability 72 h (Crizotinib) [µM]","IC50, cell viability 72 h (Savolitinib) [µM]","IC50, cell viability 72 h (AZD6738) [µM]","IC50, cell viability 72 h (AZD5991) [µM]","IC50, cell viability 72 h (AZD7648) [µM]","IC50, cell viability 72 h (Taselisib) [µM]","IC50, cell viability 72 h (Selumetinib) [µM]","IC50, cell viability 72 h (SRA737) [µM]","IC50, cell viability 72 h (MK-2206) [µM]","IC50, cell viability 72 h (Gemcitabine) [µM]","IC50, cell viability 72 h [1] [µM]","IC50, cell viability 72 h (Olaparib) [µM]","IC50, cell viability 72 h (5-Fluorouracil) [µM]"
NCI-H1648 (Lung Adenocarcinoma),> 10,9.59,1.31,0.0289,0.0124,> 10,> 0.3,> 1,0.373,> 0.001,> 1,0.0596,> 3,> 1,7.89,> 10,2.34,0.156,> 1,0.203,1.99,> 10,8.99,> 1,4.85,> 1,> 10,0.146,> 10,> 10,9.83,> 0.3,> 5,> 10,> 20
L-363 (Plasma Cell Myeloma),> 10,> 10,0.231,> 1,0.00531,> 10,> 0.3,0.694,> 2,> 0.001,> 1,> 0.3,> 3,> 1,> 10,> 10,> 10,0.00532,> 1,0.381,> 10,> 10,> 10,> 1,2.77,0.134,> 10,9.12,> 10,1.22,8.5,0.258,> 5,> 10,> 20
KNS-62 (Squamous Cell Lung Carcinoma),> 10,6.59,> 3,0.276,0.273,> 10,> 0.3,> 1,> 2,> 0.001,> 1,0.0533,> 3,> 1,> 10,> 10,> 10,0.342,> 1,0.632,> 10,> 10,> 10,> 1,> 10,> 1,> 10,> 10,> 10,> 10,> 10,> 0.3,4.14,> 10,> 20
